Experiments:
[1] = system: Hq mutant and wild type granule cells; design: dose or concentration left out as unconfirmed; conditions: 24 hours
[2] = system: primary neuronal granule cell cultures from Hq mutant mice; experiment: Glutamate sensitivity of primary granule cell cultures; format: cell-based, mouse; design: unit of the concentration uncertain
Source text: Low doses of glutamate cause neuronal excitotoxicity via NMDA receptors, while higher doses of glutamate trigger intracellular oxidative stress through the release of endogenous peroxides.

[3] = system: primary neuronal granule cell cultures from Hq mutant mice; conditions: 20 and 50 mM hydrogen peroxide, 5 hours, PI staining
Protocol: To determine if decrease in AIF levels leads to increased sensitivity to exogenous peroxides, primary neuronal granule cell cultures from Hq mutant mice were treated with increasing doses of hydrogen peroxide (0, 5, 20, 50 mM) for 5 hours and then stained with propidium iodide (PI) to identify apoptotic cells.

[4] = system: mutant and wildtype embryonic cortical cells; conditions: hydrogen peroxide for 24 hours, any peroxide concentration
Protocol: To determine if increased peroxide sensitivity due to loss of wild-type levels of AIF is cell-specific, primary cultures of mutant and wildtype embryonic cortical cells were treated under the identical conditions used for granule cell cultures.

SMILES: CN[C@@H]1C[C@H]2O[C@@](C)([C@@H]1OC)n1c3ccccc3c3c4c(c5c6ccccc6n2c5c31)C(=O)NC4 [staurosporine]
- cell death, Hq mutant versus wild type granule cells [1]: no significant difference in cell death

SMILES: COc1cc([C@@H]2c3cc4c(cc3[C@@H](O[C@@H]3O[C@@H]5CO[C@@H](C)O[C@H]5[C@H](O)[C@H]3O)[C@H]3COC(=O)[C@H]23)OCO4)cc(OC)c1O [etoposide]
- cell death, Hq mutant versus wild type granule cells [1]: no significant difference in cell death

SMILES: N[C@@H](CCC(=O)O)C(=O)O [glutamate]
- Hq mutant granule cell death ([2]; higher doses of glutamate (2000 (unit uncertain))): significant increases in Hq mutant granule cell death
- cell viability, mutant versus wild type granule cells ([2]; low concentrations of glutamate (100 (unit uncertain))): Cell viability was similar

SMILES: OO [hydrogen peroxide]
- cell death, Hq mutant versus wild-type cultures [3]: Significantly more cell death
- viability, mutant versus wild type cortical cells [4]: no difference in viability

— patent publication US20030228581A1, “Diagnosis and treatment for late onset neurodegenerative disorder” (priority 2002, published 2003)
